The source made the active and inactive calls. The rule behind the calls is not given here.
System: rodent carcinogenicity bioassays, tumor incidence
Assay: CCRIS carcinogenicity studies
Procedure, shortened: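 NCI-built, expert-reviewed records of carcinogenicity and related test outcomes (mutagenicity, tumor promotion/inhibition) compiled from published and report sources, historical span 1985-2011, not updated.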

CCN(N=O)C(=O)NC was tested, and the carcinogen call (Species: RAT, Strain/Sex: F344/FEMALE, Route: GAVAGE, Dose: 0, 20, 40 UMOL/WK IN CORN OIL/ETHYL ACETATE (2: 1) FOR 30 WK FOR TOTAL DOSES OF 0, 0.6, 1.2 MMOL (STUDY DURATION: LIFETI, Dose: 0, 20, 40 UMOL/WK IN CORN OIL/ETHYL ACETATE (2: 1) FOR 30 WK FOR TOTAL DOSES OF 0, 0.6, 1.2 MMOL (STUDY DURATION: LIFETI, Tumor Site: Type of Lesion: MAMMARY GLAND: TUMOR, UTERUS: TUMOR) was “active; positive”, the carcinogen call (Species: RAT, Strain/Sex: F344/FEMALE, Route: ORAL, Dose: 0, 20, 40 UMOL/WK IN DRINKING WATER FOR 30 WK FOR TOTAL DOSES OF 0, 0.6, 1.2 MMOL (STUDY DURATION: LIFETIME), Dose: 0, 20, 40 UMOL/WK IN DRINKING WATER FOR 30 WK FOR TOTAL DOSES OF 0, 0.6, 1.2 MMOL (STUDY DURATION: LIFETIME), Tumor Site: Type of Lesion: LUNG: TUMOR, MAMMARY GLAND: TUMOR, UTERUS: TUMOR, THYROID: FOLLICULAR CELL TUMOR, NERVOUS SYSTEM: TUMOR, Tumor Site: Type of Lesion: LUNG: TUMOR, MAMMARY GLAND: TUMOR, UTERUS: TUMOR, THYROID: FOLLICULAR CELL TUMOR, NERVOUS SYSTEM: TUMOR) was “active; positive” and the carcinogen call (Species: RAT, Strain/Sex: F344/MALE, Route: GAVAGE, Dose: 0, 20, 40 UMOL/WK IN CORN OIL/ETHYL ACETATE (2: 1) FOR 30 WK FOR TOTAL DOSES OF 0, 0.6, 1.2 MMOL (STUDY DURATION: LIFETI, Dose: 0, 20, 40 UMOL/WK IN CORN OIL/ETHYL ACETATE (2: 1) FOR 30 WK FOR TOTAL DOSES OF 0, 0.6, 1.2 MMOL (STUDY DURATION: LIFETI, Tumor Site: Type of Lesion: LUNG: TUMOR, TESTIS: MESOTHELIOMA, ZYMBAL GLAND: TUMOR, Tumor Site: Type of Lesion: LUNG: TUMOR, TESTIS: MESOTHELIOMA, ZYMBAL GLAND: TUMOR) was “active; positive”. The carcinogen call (Species: RAT, Strain/Sex: F344/MALE, Route: ORAL, Dose: 0, 20, 40 UMOL/WK IN DRINKING WATER FOR 30 WK FOR TOTAL DOSES OF 0, 0.6, 1.2 MMOL (STUDY DURATION: LIFETIME), Dose: 0, 20, 40 UMOL/WK IN DRINKING WATER FOR 30 WK FOR TOTAL DOSES OF 0, 0.6, 1.2 MMOL (STUDY DURATION: LIFETIME), Tumor Site: Type of Lesion: LUNG: TUMOR, THYROID: FOLLICULAR CELL TUMOR, TESTIS: MESOTHELIOMA, NERVOUS SYSTEM: TUMOR, ZYMBAL GLAND: TUMOR, COLON: TU, Tumor Site: Type of Lesion: LUNG: TUMOR, THYROID: FOLLICULAR CELL TUMOR, TESTIS: MESOTHELIOMA, NERVOUS SYSTEM: TUMOR, ZYMBAL GLAND: TUMOR, COLON: TU) was “active; positive”.
CCNC(=O)Nc1ncc([N+](=O)[O-])s1 was tested, and the carcinogen call (Species: MOUSE, Strain/Sex: B6C3F1/FEMALE, Route: ORAL, Dose: 0, 2500, 5000 PPM IN DIET FOR 94 WK (STUDY DURATION: 104 WK), Dose: 0, 2500, 5000 PPM IN DIET FOR 94 WK (STUDY DURATION: 104 WK), Tumor Site: Type of Lesion: LIVER: HEPATOCELLULAR ADENOMA OR CARCINOMA) was “equivocal”, the carcinogen call (Species: MOUSE, Strain/Sex: B6C3F1/MALE, Route: ORAL, Dose: 0, 2500, 5000 PPM IN DIET FOR 94 WK (STUDY DURATION: 104 WK), Dose: 0, 2500, 5000 PPM IN DIET FOR 94 WK (STUDY DURATION: 104 WK), Tumor Site: Type of Lesion: LIVER: HEPATOCELLULAR CARCINOMA OR ADENOMA) was “active; positive” and the carcinogen call (Species: RAT, Strain/Sex: F344/FEMALE, Route: ORAL, Dose: 0, 625, 1250 PPM IN DIET FOR 94 WK (STUDY DURATION: 104 WK), Dose: 0, 625, 1250 PPM IN DIET FOR 94 WK (STUDY DURATION: 104 WK), Tumor Site: Type of Lesion: INTEGUMENTARY SYSTEM (SKIN AND SUBCUTANEOUS TISSUE) AND MAMMARY GLAND: FIBROADENOMA OR CYSTADENOMA (NOS)) was “active; positive”. For the same compound, the carcinogen call (Species: RAT, Strain/Sex: F344/MALE, Route: ORAL, Dose: 0, 625, 1250 PPM IN DIET FOR 94 WK (STUDY DURATION: 104 WK), Dose: 0, 625, 1250 PPM IN DIET FOR 94 WK (STUDY DURATION: 104 WK)) was “inactive; negative”.
With CCCCCOC(=O)COc1cc(N2C(=O)C3=C(CCCC3)C2=O)c(F)cc1Cl the carcinogen call (Species: Mouse, Strain/Sex: CD-1 (ICR)/Female (51/Group), Route: Oral, Dose: 0, 37.8, 368.1, 850.1 mg/kg/day of 94.7% flumiclorac pentyl in diet for 78 wk, study duration 78 wk, Dose: 0, 37.8, 368.1, 850.1 mg/kg/day of 94.7% flumiclorac pentyl in diet for 78 wk, study duration 78 wk) was “inactive; negative”, the carcinogen call (Species: Mouse, Strain/Sex: CD-1 (ICR)/Male (51/Group), Route: Oral, Dose: 0, 31.5, 307.9, 731.4 mg/kg/day of 94.7% flumiclorac pentyl in diet for 78 wk, study duration 78 wk, Dose: 0, 31.5, 307.9, 731.4 mg/kg/day of 94.7% flumiclorac pentyl in diet for 78 wk, study duration 78 wk) was “inactive; negative” and the carcinogen call (Species: Rat, Strain/Sex: Crj:CD(SD)/Female (50/Group), Route: Oral, Dose: 0, 4.3, 43.6, 443.8, 919.4 mg/kg/day of 94.4% flumiclorac pentyl in diet for 24 mo, study duration 24 mo, Dose: 0, 4.3, 43.6, 443.8, 919.4 mg/kg/day of 94.4% flumiclorac pentyl in diet for 24 mo, study duration 24 mo) was “inactive; negative”. The carcinogen call (Species: Rat, Strain/Sex: Crj:CD(SD)/Male (50/Group), Route: Oral, Dose: 0, 3.5, 35.4, 360.4, 744.9 mg/kg/day of 94.4% flumiclorac pentyl in diet for 24 mo, study duration 24 mo, Dose: 0, 3.5, 35.4, 360.4, 744.9 mg/kg/day of 94.4% flumiclorac pentyl in diet for 24 mo, study duration 24 mo) was “inactive; negative”.
In the case of Oc1ccc(Cl)cc1Cc1ccccc1, the carcinogen call (Species: MOUSE, Strain/Sex: B6C3F1/FEMALE, Route: GAVAGE, Dose: 0, 120, 240, 480 MG/KG BW IN CORN OIL 5 D/WK FOR 103 WK (STUDY DURATION: 2 YR), Dose: 0, 120, 240, 480 MG/KG BW IN CORN OIL 5 D/WK FOR 103 WK (STUDY DURATION: 2 YR)) was “inactive; negative”, the carcinogen call (Species: MOUSE, Strain/Sex: B6C3F1/MALE, Route: GAVAGE, Dose: 0, 120, 240, 480 MG/KG BW IN CORN OIL 5 D/WK FOR 103 WK (STUDY DURATION: 2 YR), Dose: 0, 120, 240, 480 MG/KG BW IN CORN OIL 5 D/WK FOR 103 WK (STUDY DURATION: 2 YR), Tumor Site: Type of Lesion: KIDNEY (RENAL TUBULE): ADENOMA, ADENOMA OR CARCINOMA) was “active; positive” and the carcinogen call (Species: MOUSE, Strain/Sex: CD-1/FEMALE, Route: DERMAL, Dose: 10 MG IN ACETONE ONCE FOLLOWED BY 0.1, 1, 3 MG 3/WK FOR 51 WK (STUDY DURATION: 52 WK), Dose: 10 MG IN ACETONE ONCE FOLLOWED BY 0.1, 1, 3 MG 3/WK FOR 51 WK (STUDY DURATION: 52 WK)) was “inactive; negative”. The carcinogen call (Species: MOUSE, Strain/Sex: CD-1/MALE, Route: DERMAL, Dose: 10 MG IN ACETONE ONCE FOLLOWED BY 0.1, 1, 3 MG 3/WK FOR 51 WK (STUDY DURATION: 52 WK), Dose: 10 MG IN ACETONE ONCE FOLLOWED BY 0.1, 1, 3 MG 3/WK FOR 51 WK (STUDY DURATION: 52 WK)) was “inactive; negative”, the carcinogen call (Species: RAT, Strain/Sex: F344/FEMALE, Route: GAVAGE, Dose: 0, 30, 60, 120 MG/KG BW IN CORN OIL 5 D/WK FOR 103 WK (STUDY DURATION: 105 WK), Dose: 0, 30, 60, 120 MG/KG BW IN CORN OIL 5 D/WK FOR 103 WK (STUDY DURATION: 105 WK), Tumor Site: Type of Lesion: KIDNEY (TRANSITIONAL CELL): CARCINOMA) was “equivocal” and the carcinogen call (Species: RAT, Strain/Sex: F344/MALE, Route: GAVAGE, Dose: 0, 30, 60, 120 MG/KG BW IN CORN OIL 5 D/WK FOR 103 WK (STUDY DURATION: 2 YR), Dose: 0, 30, 60, 120 MG/KG BW IN CORN OIL 5 D/WK FOR 103 WK (STUDY DURATION: 2 YR)) was “inactive; negative”.
For [N-]=[N+]=CC(=O)OC[C@H](N)C(=O)O, the carcinogen call (Species: RAT, Strain/Sex: WISTAR/MALE,FEMALE, Route: INTRAPERITONEAL, Dose: 5 MG/KG 1-2 TIMES PER WK FOR 6 MO, Tumor Site: Type of Lesion: KIDNEY: PAPILLARY EPITHELIAL TUMOR, CLEAR CELL TUMOR, TUBULAR ADENOMA, PANCREAS: ADENOCARCINOMA) was “active; positive”.
With OCc1c2ccccc2c2ccc3cccc4ccc1c2c43 the carcinogen call (Species: MOUSE, Strain/Sex: B6C3F1/MALE, Route: INTRAPERITONEAL, Dose: 0, 0.0025, 0.005, 0.015 UMOL/G ONCE AT 12 DAYS OF AGE (STUDY DURATION: 10 MO), Dose: 0, 0.0025, 0.005, 0.015 UMOL/G ONCE AT 12 DAYS OF AGE (STUDY DURATION: 10 MO), Tumor Site: Type of Lesion: LIVER: HEPATOMA) was “active; positive” and the carcinogen call (Species: RAT, Strain/Sex: SPRAGUE-DAWLEY/FEMALE, Route: SUBCUTANEOUS, Dose: 0, 0.2 UMOL 3/WK FOR 20 DOSES (STUDY DURATION: 52 WK), Tumor Site: Type of Lesion: INJECTION SITE: SARCOMA) was “active; positive”.
